Data reported in patent US6716987B1, “Derivatives of benzofuran or benzodioxazole compounds” (Kyowa Hakko Kogyo Co., Ltd., priority 1995, dated 2004).

Columns and labels:
[1] = tested on: cAMP-specific phosphodiesterase (PDE IV); test: Inhibition of the PDE IV enzyme derived from a dog trachea; format: biochemical; conditions: test compound 10^−6 M; PDE IV from dog tracheal smooth muscle; substrate cAMP 1 μM
In short: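 Enzyme purified from dog tracheal smooth muscle; [3H]cAMP substrate at 1 μM final in 50 mM BES pH 7.2, 1 mM MgCl2, 0.1 mg/ml soybean trypsin inhibitor, 30° C for 10–30 min, 1.7% DMSO final. After HCl stop, product converted to adenosine by 5′-nucleotidase, separated on DEAE-Sephadex and scintillation-counted.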

CCOC(=O)CC1COc2c(OC)ccc(C(=O)Nc3ccccc3)c21 (racemic) [Compound 7, (±)-3-Ethoxycarbonylmethyl-7-methoxy-4-phenylaminocarbonyl-2,3-dihydrobenzofuran]
melting point: 169 to 170 °C
Enzyme Inhibitory Activity (%, 10^−6 M) [1]: 37%

CCOC(=O)CC1COc2c(OC)ccc(C(=O)NC3CCCCC3)c21 (racemic) [Compound 8, (±)-4-Cyclohexylaminocarbonyl-3-ethoxycarbonylmethyl-7-methoxy-2,3-dihydrobenzofuran]
melting point: 197 to 199 °C
Enzyme Inhibitory Activity (%, 10^−6 M) [1]: 5%

COc1ccc(C(=O)Nc2c(Cl)cncc2Cl)c2c1OCC2CC(=O)O (racemic) [Compound 9, (±)-3-Carboxymethyl-4-(3,5-dichloro-4-pyridylaminocarbonyl)-7-methoxy-2,3-dihydrobenzofuran]
melting point: 259 to 263 °C
Enzyme Inhibitory Activity (%, 10^−6 M) [1]: 22%

COc1ccc(C(=O)Nc2ccccc2)c2c1OCC2CC(=O)O (racemic) [Compound 11, (±)-3-Carboxymethyl-7-methoxy-4-phenylaminocarbonyl-2,3-dihydrobenzofuran]
melting point: 248 to 251 °C
Enzyme Inhibitory Activity (%, 10^−6 M) [1]: 6%

COc1ccc(C(=O)NC2CCCCC2)c2c1OCC2CC(=O)O (racemic) [Compound 12, (±)-3-Carboxymethyl-4-cyclohexylaminocarbonyl-7-methoxy-2,3-dihydrobenzofuran]
melting point: 246 to 247 °C
Enzyme Inhibitory Activity (%, 10^−6 M) [1]: 8%

COc1ccc(C(=O)Nc2c(Cl)cncc2Cl)c2c1OCC2CC(=O)OCc1ccccc1 (racemic) [Compound 13, (±)-3-Benzyloxycarbonylmethyl-4-[(3,5-Dichloro-4-pyridyl)aminocarbonyl]-7-methoxy-2,3-dihydrobenzofuran]
melting point: 198 to 205 °C
Enzyme Inhibitory Activity (%, 10^−6 M) [1]: 94%

COc1ccc(C(=O)Nc2ccccc2)c2c1OCC2CC(=O)OCc1ccccc1 (racemic) [Compound 15, (±)-3-Benzyloxycarbonylmethyl-7-methoxy-4-phenylaminocarbonyl-2,3-dihydrobenzofuran]
melting point: 179 to 180 °C
Enzyme Inhibitory Activity (%, 10^−6 M) [1]: 75%

COc1ccc(C(=O)Nc2c(Cl)cncc2Cl)c2c1OCC2CC(=O)NCc1cccnc1 (racemic) [Compound 18, (±)-4-[(3,5-Dichloro-4-pyridyl)aminocarbonyl]-7-methoxy-3-[(3-pyridylmethyl)aminocarbonyl]methyl-2,3-dihydrobenzofuran]
melting point: 258 to 261 °C (dec.)
Enzyme Inhibitory Activity (%, 10^−6 M) [1]: 81%

COc1ccc(C(=O)Nc2c(Cl)cncc2Cl)c2c1OCC2CC(=O)N1CCN(c2ccccc2)CC1 (racemic) [Compound 21, (±)-4-[(3,5-Dichloro-4-pyridyl)aminocarbonyl]-7-methoxy-3-[(4-phenyl-1-piperazinyl)carbonyl]methyl-2,3-dihydrobenzofuran]
melting point: 224 °C
Enzyme Inhibitory Activity (%, 10^−6 M) [1]: 84%

COc1ccc(C(=O)Nc2c(Cl)cncc2Cl)c2c1OCC2CC(=O)NCc1ccccc1 (racemic) [Compound 25, (±)-3-(Benzylaminocarbonyl)methyl-4-[(3,5-dichloro-4-pyridyl)aminocarbonyl]-7-methoxy-2,3-dihydrobenzofuran]
melting point: 284 to 286 °C
Enzyme Inhibitory Activity (%, 10^−6 M) [1]: 84%

COc1ccc(C(=O)Nc2c(Cl)cncc2Cl)c2c1OCC2CC(=O)Nc1ccccc1 (racemic) [Compound 27, (±)-4-[(3,5-Dichloro-4-pyridyl)aminocarbonyl]-7-methoxy-3-(phenylaminocarbonyl)methyl-2,3-dihydrobenzofuran]
melting point: 296 to 300 °C (dec.)
Enzyme Inhibitory Activity (%, 10^−6 M) [1]: 75%

COc1ccc(CNC(=O)CC2COc3c(OC)ccc(C(=O)Nc4c(Cl)cncc4Cl)c32)cc1 (racemic) [Compound 28, (±)-4-[(3,5-Dichloro-4-pyridyl)aminocarbonyl]-7-methoxy-3-[(4-methoxybenzyl)aminocarbonyl]methyl-2,3-dihydrobenzofuran]
melting point: 269 to 271 °C
Enzyme Inhibitory Activity (%, 10^−6 M) [1]: 83%
